# Source: US9211310B2, “Use of a Chinese medicine composition in preparing medicaments for treating secondary prevention of myocardial infarction” (TASLY PHARMACEUTICAL GROUP CO., LTD, priority 2010, dated 2015)
# Test system: patients after acute myocardial infarction
# Test: Life quality, Seattle Angina Questionnaire (SAQ), same clinical trial
# Assay type: in vivo, human
# Settings: 12 months after treatment
# Source text: 3508 patients who were in accordance with the diagnostic standards of AMI for 28 days to 2 years and differentiated as Qi deficiency and blood stagnation syndrome by TCM were studied. 0.5 g Chinese medicine composition prepared by the method of EXAMPLE 1 (Coded as QSYQ) was administrated half an hour after meal, 3 times per day.
# There were 19 questions in the Seattle angina questionnaire (SAQ), including 5 parts: physical limitation (PL), anginal stability (AS), anginal frequency (AF), treatment satisfaction (TS) and disease perception (DP). After being given necessary explanation by doctors, the questions were answered independently by patients.
# They included the overall survival time, angina pectoris score, TCM symptom score and life quality score, where angina pectoris score, TCM symptom score and life quality score were evaluated at randomization, in 1st, 3rd, 6th, 9th, 12th month after treatment and 18th month after follow-up.
# All evaluation results of SAQ were described during the period of observation, and Wilcoxon rank sum test was used for inter-group comparison.
# The evaluation results in the SAQ were depicted in different observations, and inter-group comparison was tested by Wilcoxon Rank-sum test.
smiles,measurement,setting,value
"CC(=O)Oc1ccccc1C(=O)O [Control group, aspirine]","SAQ Question 1-5: Not limited, number of patients",FAS,863
same,"SAQ Question 1-5: Not limited, percent of patients",FAS,(49.51%)
same,"SAQ Question 1-5: Other reasons, number of patients",FAS,11
same,"SAQ Question 1-5: Other reasons, percent of patients",FAS,(0.63%)
same,"SAQ Question 1-5: Severely limited, number of patients",FAS,13
same,"SAQ Question 1-5: Severely limited, percent of patients",FAS,(0.75%)
same,"SAQ Question 1-5: Slightly limited, number of patients",FAS,517
same,"SAQ Question 1-5: Slightly limited, percent of patients",FAS,(29.66%)
same,"SAQ Question 1-9: Mildly limited, % of cases",FAS,(19.60%)
same,"SAQ Question 1-9: Mildly limited, cases",FAS,336
same,"SAQ Question 1-9: Moderately limited, % of cases",FAS,(20.42%)
same,"SAQ Question 1-9: Moderately limited, cases",FAS,350
same,"SAQ Question 1-9: Not limited, % of cases",FAS,(4.55%)
same,"SAQ Question 1-9: Not limited, cases",FAS,78
same,"SAQ Question 1-9: Other reasons, % of cases",FAS,(5.89%)
same,"SAQ Question 1-9: Other reasons, cases",FAS,101
same,"SAQ Question 1-9: Severely limited, % of cases",FAS,(31.62%)
same,"SAQ Question 1-9: Severely limited, cases",FAS,542
same,"SAQ Question 1-9: Slightly limited, % of cases",FAS,(17.91%)
same,"SAQ Question 1-9: Slightly limited, cases",FAS,307
same,"SAQ 2nd question: Clearly increased, % of cases",PP,(0.14%)
same,"SAQ 2nd question: Clearly increased, cases",PP,2
same,"SAQ 2nd question: Clearly reduced, % of cases",PP,(30.04%)
same,"SAQ 2nd question: Clearly reduced, cases",PP,428
same,"SAQ 2nd question: Same, % of cases",PP,(37.05%)
same,"SAQ 2nd question: Same, cases",PP,528
same,"SAQ 2nd question: Slightly increased, % of cases",PP,(1.96%)
same,"SAQ 2nd question: Slightly increased, cases",PP,28
same,"SAQ 2nd question: Slightly reduced, % of cases",PP,(30.81%)
same,"SAQ 2nd question: Slightly reduced, cases",PP,439
same,"SAQ 3rd question: 1-2 times per week, % of cases",PP,(30.81%)
same,"SAQ 3rd question: 1-2 times per week, cases",PP,439
same,"SAQ 3rd question: 1-3 times per day, % of cases",PP,(1.96%)
same,"SAQ 3rd question: 1-3 times per day, cases",PP,28
same,"SAQ 3rd question: <1 time per week, % of cases",PP,(30.04%)
same,"SAQ 3rd question: <1 time per week, cases",PP,428
same,"SAQ 3rd question: No onset, % of cases",PP,(0.00%)
same,"SAQ 3rd question: No onset, cases",PP,0
same,"SAQ 3rd question: ≧3 times per week, % of cases",PP,(37.05%)
same,"SAQ 3rd question: ≧3 times per week, cases",PP,528
same,"SAQ 3rd question: ≧4 times per day, % of cases",PP,(0.14%)
same,"SAQ 3rd question: ≧4 times per day, cases",PP,2
same,"SAQ Question 1-3: Mildly limited, number of patients",PP,30
same,"SAQ Question 1-3: Mildly limited, percent of patients",PP,(2.11%)
same,"SAQ Question 1-3: Moderately limited, number of patients",PP,3
same,"SAQ Question 1-3: Moderately limited, percent of patients",PP,(0.21%)
same,"SAQ Question 1-3: Not limited, number of patients",PP,1225
same,"SAQ Question 1-3: Not limited, percent of patients",PP,(86.03%)
same,"SAQ Question 1-3: Other reasons, number of patients",PP,8
same,"SAQ Question 1-3: Other reasons, percent of patients",PP,(0.56%)
same,"SAQ Question 1-3: Severely limited, number of patients",PP,1
same,"SAQ Question 1-3: Severely limited, percent of patients",PP,(0.07%)
same,"SAQ Question 1-3: Slightly limited, number of patients",PP,157
same,"SAQ Question 1-3: Slightly limited, percent of patients",PP,(11.03%)
same,"SAQ Question 1-4: Mildly limited, number of patients",PP,177
same,"SAQ Question 1-4: Mildly limited, percent of patients",PP,(12.43%)
same,"SAQ Question 1-4: Moderately limited, number of patients",PP,41
same,"SAQ Question 1-4: Moderately limited, percent of patients",PP,(2.88%)
same,"SAQ Question 1-4: Not limited, number of patients",PP,724
same,"SAQ Question 1-4: Not limited, percent of patients",PP,(50.84%)
same,"SAQ Question 1-4: Other reasons, number of patients",PP,11
same,"SAQ Question 1-4: Other reasons, percent of patients",PP,(0.77%)
same,"SAQ Question 1-4: Severely limited, number of patients",PP,2
same,"SAQ Question 1-4: Severely limited, percent of patients",PP,(0.14%)
same,"SAQ Question 1-4: Slightly limited, number of patients",PP,469
same,"SAQ Question 1-4: Slightly limited, percent of patients",PP,(32.94%)
same,"SAQ Question 1-5: Mildly limited, number of patients",PP,198
same,"SAQ Question 1-5: Mildly limited, percent of patients",PP,(13.93%)
same,"SAQ Question 1-5: Moderately limited, number of patients",PP,52
same,"SAQ Question 1-5: Moderately limited, percent of patients",PP,(3.66%)
same,"SAQ Question 1-5: Not limited, number of patients",PP,736
same,"SAQ Question 1-5: Not limited, percent of patients",PP,(51.79%)
same,"SAQ Question 1-5: Other reasons, number of patients",PP,10
same,"SAQ Question 1-5: Other reasons, percent of patients",PP,(0.70%)
same,"SAQ Question 1-5: Severely limited, number of patients",PP,3
same,"SAQ Question 1-5: Severely limited, percent of patients",PP,(0.21%)
same,"SAQ Question 1-5: Slightly limited, number of patients",PP,422
